# Laboratory results reported in publication PMC8786148, “The effects of magainin 2-derived and rationally designed antimicrobial peptides on Mycoplasma pneumoniae” (PLoS ONE, 2022).
# Marks after values point to notes of the source that are not given here.
# Columns and labels:
# [1] = system: M. pneumoniae strains FH, M52, Mac, Bru, and M129-B7; assay: Propidium iodide (PI) uptake assay, membrane disruption; type: cell-based, Mycoplasma pneumoniae; details: five strains; 10 μmol/L AMP; PI 5 μg/mL in PBS; read every 2 min up to 20 min; triplicate
# Experimental: We performed the PI uptake assays based on the previously described method with modification for M. pneumoniae. M. pneumoniae strains FH, M52, Mac, Bru, and M129-B7 were cultured as described above. Briefly, the 90 mL culture was done in PPLO-based medium for 6 days to observe the medium color change from red to yellow. The mycoplasma in the culture medium was centrifuged at 11,740g for 30 min at 4°C, and the precipitation was suspended in 20 mL phosphate buffered saline (PBS) by passing through a 60 mm-length 25-gauge needle (Top Corporation, Tokyo, Japan) three times. The suspension was centrifuged again at 11,740g for 30 min at 4°C, and 2.25 mL PBS was added to the precipitation. The 2× mycoplasma suspension was prepared by passing through a 60 mm-length 25-gauge needle five times. When using heat-killed M. pneumoniae (HKMp), the 2× suspension was heated at 95°C for 10 min. The 2× PI assay reaction mix based on PBS containing 20 μmol/L of an antimicrobial peptide or saline, and 10 μg/mL PI (Dojindo, Tokyo, Japan). Each assay was performed with a 96-well black flat-bottomed plate (PerkinElmer, Waltham, MA, USA) using a final cell volume of 100 μL prepared by mixing 2× mycoplasma suspension and 2× PI assay reaction mix at 1:1 in volume ratio. The intercalation fluorescence of PI was measured by using an Infinite 200 Pro F Plex microplate reader (Tecan, Zürich, Switzerland) every 2 min, with an excitation filter at 535 nm (half width: 25 nm) and an emission filter at 620 nm (half width: 20 nm). The averages and standard deviations of the fluorescent intensities was calculated, and normalised by an average fluorescence between 10 and 20 min of HKMp as 100% relative fluorescence, and by a minimum average fluorescence between 0 and 20 min of whole data as 0% relative fluorescence.
# Staphylococcus aureus = system: Staphylococcus aureus; parameters: method as in PMID 28789896, PMID 31303986, PMID 33369262; details: previously reported; cited from earlier work
# [2] = system: Staphylococcus epidermidis; parameters: method as in PMID 28789896, PMID 31303986, PMID 33369262; details: previously reported; cited from earlier work
# Escherichia coli = system: Escherichia coli; parameters: method as in PMID 28789896, PMID 31303986, PMID 33369262; details: previously reported; cited from earlier work
# Pseudomonas aeruginosa = system: Pseudomonas aeruginosa; parameters: method as in PMID 28789896, PMID 31303986, PMID 33369262; details: previously reported; cited from earlier work
# Mycoplasma pneumoniae FH [3] = assay: Killing assay, strain FH; details: for Killing assay result compared with saline / Cell numbers (CFU/mL) after treatment with antimicrobial peptides, killing assay: 30 μmol/L AMP, 3 days; for Killing assay result compared with saline: Welch's t test; for Cell numbers (CFU/mL) after treatment with antimicrobial peptides, killing assay / CFU/mL after treatment, killing assay: triplicate, mean; for Cell numbers (CFU/mL) after treatment with antimicrobial peptides, killing assay: saline 3.59×10^6; for CFU/mL after treatment, killing assay: 3 d at 37°C
# Mycoplasma pneumoniae FH [4] = assay: Colorimetric assay (absorbance at 560 nm), strain FH; details: initial 10^5 CFU/mL
# Mycoplasma pneumoniae FH [5] = assay: Biofilm assay (crystal violet, absorbance at 550 nm), strain FH; details: initial 10^5 CFU/mL; for Concentration with statistically significant effect in the biofilm assay: p < 0.005, Shirley-Williams test
# [6] = previously reported; cited from earlier work
# [7] = system: Mycoplasma pneumoniae M129-B7; assay: Colorimetric and biofilm assays, strain M129-B7; type: cell-based
# [8] = system: Mycoplasma pneumoniae Bru; assay: Killing assay, strain Bru; details: 3 days; for Titre (CFU/mL), killing assay: initial 10^6 CFU/mL, triplicate, mean
# [9] = system: Mycoplasma pneumoniae Mac; assay: Killing assay, strain Mac; details: 3 days; for Titre (CFU/mL), killing assay: initial 10^6 CFU/mL, triplicate, mean
# [10] = system: Mycoplasma pneumoniae M52; assay: Killing assay, strain M52; details: 3 days; for Titre (CFU/mL), killing assay: initial 10^6 CFU/mL, triplicate, mean
# [11] = system: Mycoplasma pneumoniae M129-B7; assay: Killing assay, strain M129-B7; details: 3 days; for Titre (CFU/mL), killing assay: initial 10^6 CFU/mL, triplicate, mean
# [12] = system: Mycoplasma pneumoniae Bru; assay: Colorimetric and biofilm assays, strain Bru
# [13] = system: Mycoplasma pneumoniae Mac; assay: Colorimetric and biofilm assays, strain Mac
# [14] = system: Mycoplasma pneumoniae M52; assay: Colorimetric and biofilm assays, strain M52
# [15] = system: four strains of M. pneumoniae; assay: Biofilm assay, four strains taken together; details: four strains (Bru, M129-B7, Mac, M52); inferred from enhanced biofilm production below 30 μmol/L
# [16] = colorimetric and biofilm assays
# [17] = up to 30 μmol/L, Shirley-Williams test
molecule,measurement,setting,value
"H-GIGKFLHSAKKFGKAFVGEIMNS-NH2 [Mag2, magainin 2]",PI fluorescence compared with live Mp without peptide,[1],fluorescence of live Mp without any peptides were higher
same,"MIC, Gram-positive, S. a.",Staphylococcus aureus,100 µM
same,"MIC, Gram-positive, S. e",[2],25 µM
same,"MIC, Gram-negative, E. c.",Escherichia coli,3.13 µM
same,"MIC, Gram-negative, P. a.",Pseudomonas aeruginosa,12.5 µM
same,Killing assay result compared with saline,Mycoplasma pneumoniae FH [3]; p < 0.005,limited influence on the growth
same,"Cell numbers (CFU/mL) after treatment with antimicrobial peptides, killing assay",Mycoplasma pneumoniae FH [3]; initial 10^6 CFU/mL,4.06×10^6 CFU/mL
same,Effect in the colorimetric assay,"Mycoplasma pneumoniae FH [4]; 0% CO2, up to 30 μmol/L",no difference
same,Concentration with statistically significant effect in the biofilm assay,"Mycoplasma pneumoniae FH [5]; 0% CO2, 6-8 days at 37°C",30 µmol/L
H-GIGKFLHSAKKFGKAFV-NH2 [Mag2-17base],PI fluorescence compared with live Mp without peptide,[1],fluorescence of live Mp without any peptides were higher
same,"MIC, Gram-positive, S. a.",Staphylococcus aureus,50 µM
same,"MIC, Gram-positive, S. e",[2],12.5 µM
same,"MIC, Gram-negative, E. c.",Escherichia coli,3.13 µM
same,"MIC, Gram-negative, P. a.",Pseudomonas aeruginosa,3.13 µM
same,Haemolysis (concentration with haemolytic effect),[6],>100 µmol/L
same,Killing assay result compared with saline,Mycoplasma pneumoniae FH [3]; p < 0.005,limited influence on the growth
same,"Cell numbers (CFU/mL) after treatment with antimicrobial peptides, killing assay",Mycoplasma pneumoniae FH [3]; initial 10^6 CFU/mL,4.86×10^6 CFU/mL
same,Effect in the biofilm assay,"Mycoplasma pneumoniae FH [5]; 0% CO2, up to 30 μmol/L",no difference
C[C@@H]1CN(c2c(F)c(N)c3c(=O)c(C(=O)O)cn(C4CC4)c3c2F)C[C@H](C)N1 [Sparfloxacin],Concentration that completely attenuated the growth,"[7]; strain M129-B7, colorimetric and biofilm assays",0.25 µg/mL
same,"Change in CFU, killing assay with 1 h incubation","Mycoplasma pneumoniae FH [3]; 1 h treatment, SPFX 0.0625-0.25 μg/mL, AMPs 30 μmol/L, S3 Fig",no change in the CFU values
same,"Concentration with significant difference in CFU, killing assay","Mycoplasma pneumoniae FH [3]; initial 10^6 CFU/mL, 3 d incubation, p < 0.005",above 0.0625 μg/mL
same,"CFU/mL after treatment, killing assay","Mycoplasma pneumoniae FH [3]; sparfloxacin 0.0156 μg/mL, initial 10^6 CFU/mL",6.57×10^6 CFU/mL
same,"CFU/mL after treatment, killing assay","Mycoplasma pneumoniae FH [3]; sparfloxacin 0.0313 μg/mL, initial 10^6 CFU/mL",2.33×10^6 CFU/mL
same,"CFU/mL after treatment, killing assay","Mycoplasma pneumoniae FH [3]; sparfloxacin 0.0625 μg/mL, initial 10^6 CFU/mL",1.39×10^5 ^a CFU/mL
same,"CFU/mL after treatment, killing assay","Mycoplasma pneumoniae FH [3]; sparfloxacin 0.125 μg/mL, initial 10^6 CFU/mL",1.30×10^4 ^a CFU/mL
same,"CFU/mL after treatment, killing assay","Mycoplasma pneumoniae FH [3]; sparfloxacin 0.25 μg/mL, initial 10^6 CFU/mL",5.50×10^3 ^a CFU/mL
same,"Concentration with statistically significant result, killing assay",[8]; p < 0.005,0.0625 µg/mL
same,"Titre (CFU/mL), killing assay",[8]; sparfloxacin 0.0156 μg/mL,2.52×10^6 CFU/mL
same,"Titre (CFU/mL), killing assay",[8]; sparfloxacin 0.0313 μg/mL,1.80×10^6 CFU/mL
same,"Titre (CFU/mL), killing assay",[8]; sparfloxacin 0.0625 μg/mL,8.41×10^5 ^a CFU/mL
same,"Titre (CFU/mL), killing assay",[8]; sparfloxacin 0.125 μg/mL,1.52×10^5 ^a CFU/mL
same,"Titre (CFU/mL), killing assay",[8]; sparfloxacin 0.25 μg/mL,1.81×10^4 ^a CFU/mL
same,"Concentration with statistically significant result, killing assay",[9]; p < 0.005,0.0625 µg/mL
same,"Titre (CFU/mL), killing assay",[9]; sparfloxacin 0.0156 μg/mL,2.66×10^6 CFU/mL
same,"Titre (CFU/mL), killing assay",[9]; sparfloxacin 0.0313 μg/mL,1.86×10^6 CFU/mL
same,"Titre (CFU/mL), killing assay",[9]; sparfloxacin 0.0625 μg/mL,3.88×10^5 ^a CFU/mL
same,"Titre (CFU/mL), killing assay",[9]; sparfloxacin 0.125 μg/mL,2.17×10^4 ^a CFU/mL
same,"Titre (CFU/mL), killing assay",[9]; sparfloxacin 0.25 μg/mL,2.90×10^3 ^a CFU/mL
same,"Concentration with statistically significant result, killing assay",[10]; p < 0.005,0.0625 µg/mL
same,"Titre (CFU/mL), killing assay",[10]; sparfloxacin 0.0156 μg/mL,2.95×10^6 CFU/mL
same,"Titre (CFU/mL), killing assay",[10]; sparfloxacin 0.0313 μg/mL,2.02×10^6 CFU/mL
same,"Titre (CFU/mL), killing assay",[10]; sparfloxacin 0.0625 μg/mL,8.00×10^5 ^a CFU/mL
same,"Titre (CFU/mL), killing assay",[10]; sparfloxacin 0.125 μg/mL,1.99×10^5 ^a CFU/mL
same,"Titre (CFU/mL), killing assay",[10]; sparfloxacin 0.25 μg/mL,3.24×10^4 ^a CFU/mL
same,"Concentration with statistically significant result, killing assay",[11]; p < 0.005,0.0625 µg/mL
same,"Titre (CFU/mL), killing assay",[11]; sparfloxacin 0.0156 μg/mL,3.57×10^6 CFU/mL
same,"Titre (CFU/mL), killing assay",[11]; sparfloxacin 0.0313 μg/mL,2.26×10^6 CFU/mL
same,"Titre (CFU/mL), killing assay",[11]; sparfloxacin 0.0625 μg/mL,8.73×10^5 ^a CFU/mL
same,"Titre (CFU/mL), killing assay",[11]; sparfloxacin 0.125 μg/mL,1.31×10^5 ^a CFU/mL
same,"Titre (CFU/mL), killing assay",[11]; sparfloxacin 0.25 μg/mL,1.12×10^4 ^a CFU/mL
same,Concentration that completely attenuated the growth,[12]; [16],0.25 µg/mL
same,Concentration that completely attenuated the growth,[13]; [16],0.25 µg/mL
same,Concentration that completely attenuated the growth,[14]; [16],0.25 µg/mL
same,"Concentration giving complete repression of the growth, colorimetric assay","Mycoplasma pneumoniae FH [4]; 0% CO2, 6-8 days at 37°C, absorbance 560 nm",higher than 0.0625 μg/mL
same,"Concentration giving complete repression of the growth, biofilm assay","Mycoplasma pneumoniae FH [5]; 0% CO2, 6-8 days at 37°C, crystal violet, absorbance 550 nm",> 0.25 µg/mL
H-KKKKKKKKKGGGLLALLALLA-NH2 [Block],Biofilm formation at 16 μmol/L,"[7]; strain M129-B7, biofilm assay, 16 μmol/L",enhancement of biofilm formation
same,Effect in the biofilm assay,"[7]; strain M129-B7, up to 30 μmol/L, Shirley-Williams test",no statistically significant effect
same,Biofilm amount at 30 μmol/L,"[7]; strain printed B129-B7, biofilm assay, 30 μmol/L",no effect
same,PI fluorescence compared with live Mp without peptide,[1],highest fluorescence
same,"MIC, Gram-positive, S. a.",Staphylococcus aureus,12.5 µM
same,"MIC, Gram-positive, S. e",[2],6.25 µM
same,"MIC, Gram-negative, E. c.",Escherichia coli,6.25 µM
same,"MIC, Gram-negative, P. a.",Pseudomonas aeruginosa,6.25 µM
same,Killing assay result compared with saline,Mycoplasma pneumoniae FH [3]; p < 0.005,significant difference
same,"Cell numbers (CFU/mL) after treatment with antimicrobial peptides, killing assay",Mycoplasma pneumoniae FH [3]; initial 10^6 CFU/mL,5.91×10^5 CFU/mL
same,"Titre (CFU/mL), killing assay","[8]; AMP 30 μmol/L, saline 3.48×10^6",2.32×10^5 ^b CFU/mL
same,"Titre (CFU/mL), killing assay","[9]; AMP 30 μmol/L, saline 4.19×10^6",4.30×10^5 ^b CFU/mL
same,"Titre (CFU/mL), killing assay","[10]; AMP 30 μmol/L, saline 3.62×10^6",3.89×10^5 ^b CFU/mL
same,"Titre (CFU/mL), killing assay","[11]; AMP 30 μmol/L, saline 3.79×10^6",4.84×10^5 ^b CFU/mL
same,Concentration of anti-Mp effect indicated by the biofilm assay,[15],> 30 µmol/L
same,Biofilm formation at 16 μmol/L,"[12]; biofilm assay, 16 μmol/L",enhancement of biofilm formation
same,Biofilm amount at 30 μmol/L,"[12]; biofilm assay, 30 μmol/L",slight drop in the biofilm amount
same,Effect in the biofilm assay,[12]; [17],no statistically significant effect
same,Biofilm formation at 16 μmol/L,"[13]; biofilm assay, 16 μmol/L",enhancement of biofilm formation
same,Biofilm amount at 30 μmol/L,"[13]; biofilm assay, 30 μmol/L",slight drop in the biofilm amount
same,Effect in the biofilm assay,[13]; [17],no statistically significant effect
same,Biofilm formation at 16 μmol/L,"[14]; biofilm assay, 16 μmol/L",enhancement of biofilm formation
same,Biofilm amount at 30 μmol/L,"[14]; biofilm assay, 30 μmol/L",no effect
same,Effect in the biofilm assay,[14]; [17],no statistically significant effect
same,Concentration with statistically significant effect in the biofilm assay,"Mycoplasma pneumoniae FH [5]; 0% CO2, 6-8 days at 37°C",30 µmol/L
